Results as given in US20260242390A1, “TOTAL SYNTHESES OF PORTIMINE A AND ANALOGUES THEREOF AS SMALL MOLECULE MODULATORS OF NMD3” (priority 2023, published 2026).

Assays:
NMD3 mRNA = NMD3 mRNA level in cells; format: cell-based, human
Protocol: (§1) FIG. 6. Portimine A inhibits S phase entry in Jurkat cells. Portimine A downregulates NMD3 at protein level but upregulates in mRNA level in cells, as well as some essential apoptosis proteins. […] Protein degradation of p53, Mcl1, Bid, Bim, Noxa can be rescued by MG132 or Epoxomicin. (B) NMD3 mRNA increased after PA treatment, but not ePA control compound. Jurkat cells were treated with indicated compounds for 24 hr; Cells were then fixed and perform Propidium Iodide staining.
(§2) • 1) Portimine A and its functional analogs show stereo-selective acute toxicity in cancer cells (FIG. 1). […] (B) Structure of portimine related analogs: phenyl-portimine A (Ph-PA, 36) and epi-portimine A (ePA, 38). Structure of fully functionalized portimine A-based epimeric probe pair: portimine A-diazirine-alkyne (PA-DA, 35-2) and epi-portimine A-diazirine-alkyne (ePA-DA, 35-1). (C) Cell viability analysis of portimine A and analogs. Jurkat cells were treated with increasing concentrations of portimine A and analogs for 24 hours. All presented data as mean of biological replicated experiments (n=3). […] Jurkat cells were treated with portimine A or analogs for 12 hours at 10 nM. […] Cell lysates were fractionated by sucrose gradient (5-50%) and each fraction were analyzed by western blot. eIF6 levels increase in 60S subunit fraction and decrease in ribosome-free fractions after PA treatment. […]

Jurkat = assay: Broad cell line profiling, Jurkat; format: cell-based; conditions: Human Leukemia, read-out: PA IC50
Text: (§3) • A panel of human and mouse cancer cell types used to assess the breadth of PA activity, including multiple therapy resistant metastatic mesenchymal tumor cell lines and primary glioblastoma patient-derived metastatic stem/tumor initiating cell populations.

LNCaP = assay: Broad cell line profiling, LNCaP; format: cell-based; conditions: Homo sapiens, Prostate Carcinoma, read-out: PA IC50
Text: as §3

Bcl-xl = Bcl-xl protein level in cells; format: cell-based, human
Protocol: as §1, §2

HepG2 = assay: Broad cell line profiling, HepG2; format: cell-based; conditions: Homo sapiens; HepG2, Hepatocellular Carcinoma; read-out: PA IC50
Text: as §3

C=CC1=C[C@@H]2[C@@H]3O[C@]4(CC[C@H](O4)C(C)C[C@@H](O)C3=O)CC(O)C3=NCC[C@@]32CC1 (some centres unmarked) [PA, portimine A]
NMD3 mRNA (NMD3 mRNA): increased
IC50 (Jurkat): 0.56 nM
IC50 (LNCaP): 1.7 nM
Bcl-xl protein level after treatment (Bcl-xl): downregulated
IC50 (HepG2): 4.8 nM
